Reference: patent US20230059136A1, “THE COMPOUNDS AND COMPOSITIONS FOR TREATING CONDITIONS ASSOCIATED WITH NLRP ACTIVITY” (Novartis AG, priority 2018, published 2023)

How the values were obtained:
[1] = test system: IL-1β production in PMA-differentiated THP-1 cells; test: hTHP-1 assay containing 10% fetal bovine serum (IL-1β production, gramicidin-stimulated THP-1 cells); format: cell-based, human
Description: Activity key: <0.008 μM=“++++++”; ≥0.008 and <0.04 μM=“+++++”; ≥0.04 and <0.2 μM=“++++”; ≥0.2 and <1 μM=“+++”; ≥1 and <5 μM=“++”; ≥5 and <30 μM=“+”. ND=not determined.

[2] = test system: IL-1β production in PMA-differentiated THP-1 cells; test: IL-1β production in PMA-differentiated THP-1 cells stimulated with gramicidin (hTHP-1 assay containing 2% fetal bovine serum); format: cell-based, human
Outline: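 THP-1 cells were differentiated with PMA 20 ng/ml for 16-18 h, then plated at 50,000 cells/well in RPMI with 2% FBS. They were preincubated 1 h with compound (100–0.0017 μM final, 0.37% DMSO), then stimulated with gramicidin 5 μM for 2 h. Supernatant IL-1β was measured by HTRF.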

[3] = read-out: hTHP-1 IC50 in 10% FBS, average IC50
[4] = read-out: hTHP-1 IC50 in 2% FBS, average IC50, hTHP-1 assay containing 2% fetal bovine serum
[5] = Homo sapiens, THP-1, read-out: hTHP-1 IC50 in 2% FBS, average IC50, hTHP-1 assay containing 2% fetal bovine serum
[6] = Homo sapiens, THP-1, read-out: hTHP-1 IC50 in 10% FBS, average IC50
[7] = Table B1, 2% fetal bovine serum, class symbols, read-out: hTHP-1 IC50 (Average IC50 of compounds in hTHP-1 assay)
[8] = Homo sapiens, THP-1, Table B1, 2% fetal bovine serum, cells printed as numeric bound, read-out: hTHP-1 IC50 (Average IC50 of compounds in hTHP-1 assay)
[9] = Homo sapiens, THP-1, Table B1, 2% fetal bovine serum, class symbols, read-out: hTHP-1 IC50 (Average IC50 of compounds in hTHP-1 assay)

## CC(C)c1cc2c(c(C(C)C)c1CC(=O)N=S(N)(=O)c1nn(C[C@@H](C)O)cc1F)OC(F)(F)O2 (single isomer, unassigned) [Example 416, (S) or (R)-N-(amino(4-fluoro-1-((R)-2-hydroxypropyl)-1H-pyrazol-3-yl)(oxo)-λ^6-sulfaneylidene)-2-(2,2-difluoro-4,6-diisopropylbenzo[d][1,3]dioxol-5-yl)acetamide]
[1]; [3]
  IC50: 5000 to 30000 nM

## CC(C)c1c2c(c3c(c1CC(=O)N=S(N)(=O)c1sc(C(C)(C)O)cc1F)CCC3)COC2 (single isomer, unassigned) [Example 412, (S) or (R)-N-(amino(3-fluoro-5-(2-hydroxypropan-2-yl)thiophen-2-yl)(oxo)-λ^6-sulfaneylidene)-2-(4-isopropyl-3,6,7,8-tetrahydro-1H-indeno[4,5-c]furan-5-yl)acetamide]
[2]; Homo sapiens, THP-1, read-out: hTHP-1 IC50 in 2% FBS, average IC50, hTHP-1 assay containing 2% fetal bovine serum, given as numeric bound
  IC50: > 30000 nM
[1]; Homo sapiens, THP-1, read-out: hTHP-1 IC50 in 10% FBS, average IC50, given as numeric bound
  IC50: > 30000 nM

## CC(C)c1c(CC(=O)N=S(N)(=O)c2sc(C(C)(C)O)cc2F)c2c(c3c1OC(F)(F)O3)CCC2 (racemic) [Example 407, (R) and (S)—N-(amino(3-fluoro-5-(2-hydroxypropan-2-yl)thiophen-2-yl)(oxo)-λ^6-sulfaneylidene)-2-(2,2-difluoro-4-isopropyl-7,8-dihydro-6H-indeno[4,5-d][1,3]dioxol-5-yl)acetamide]
[2]; [4]
  IC50: 5000 to 30000 nM
[1]; [3]
  IC50: 5000 to 30000 nM

## CNCc1ccc(S(N)(=O)=NC(=O)Cc2c(-c3ccccc3)cc(F)cc2C(C)C)cc1 (single isomer, unassigned) [Example 413, (S) or (R)-N-(amino(4-((methylamino)methyl)phenyl) (oxo)-λ^6-sulfaneylidene)-2-(5-fluoro-3-isopropyl-[1,1′-biphenyl]-2-yl)acetamide]
[1]; [3]
  IC50: 5000 to 30000 nM

## CC(C)c1cc2c(c(C(C)C)c1CC(=O)N=S(N)(=O)c1nn(C[C@@H](C)O)cc1F)OC(F)(F)O2 (single isomer, unassigned) [Example 415, (R) or (S)-N-(amino(4-fluoro-1-((R)-2-hydroxypropyl)-1H-pyrazol-3-yl)(oxo)-λ^6-sulfaneylidene)-2-(2,2-difluoro-4,6-diisopropylbenzo[d][1,3]dioxol-5-yl)acetamide]
[1]; [3]
  IC50: 40 to 200 nM

## CC(C)c1cc2c(c(C(C)C)c1CC(=O)N=S(N)(=O)c1nn(CCO)cc1F)OC(F)(F)O2 (racemic) [Example 406, (R) and (S)—N-(amino(4-fluoro-1-(2-hydroxyethyl)-1H-pyrazol-3-yl)(oxo)-λ^6-sulfaneylidene)-2-(2,2-difluoro-4,6-diisopropylbenzo[d][1,3]dioxol-5-yl)acetamide]
[2]; [4]
  IC50: 5000 to 30000 nM
[1]; [3]
  IC50: 1000 to 5000 nM

## CC(C)c1c(CC(=O)N=S(N)(=O)c2sc(C(C)(C)O)cc2F)c2c(c3c1OC(F)(F)O3)CCC2 (racemic) [Example 408, (R) and (S)—N-(amino(3-fluoro-5-(2-hydroxypropan-2-yl)thiophen-2-yl)(oxo)-λ^6-sulfaneylidene)-2-(2,2-difluoro-4-isopropyl-7,8-dihydro-6H-indeno[4,5-d][1,3]dioxol-5-yl)acetamide]
[2]; [4]
  IC50: 200 to 1000 nM
[1]; [3]
  IC50: 200 to 1000 nM

## CC(C)c1cc2c(c(C(C)C)c1CC(=O)N=S(N)(=O)c1nn(CCO)cc1F)OC(F)(F)O2 (racemic) [Example 405, (R) and (S)—N-(amino(4-fluoro-1-(2-hydroxyethyl)-1H-pyrazol-3-yl)(oxo)-λ^6-sulfaneylidene)-2-(2,2-difluoro-4,6-diisopropylbenzo[d][1,3]dioxol-5-yl)acetamide]
[2]; [4]
  IC50: 200 to 1000 nM
[1]; [3]
  IC50: 40 to 200 nM

## CC(C)c1cccc(C(C)C)c1CC(=O)N=S(N)(=O)c1ccc(CCNC(=O)CCCc2ccccc2)cc1 (stereo not drawn) [Compound 409]
[2]; [5]
  IC50: 1000 to 5000 nM
[1]; [6]
  IC50: 200 to 1000 nM

## CNCc1ccc(S(N)(=O)=NC(=O)Cc2c(-c3ccccc3)cc(F)cc2C(C)C)cc1 (single isomer, unassigned) [Example 414, (R) or (S)-N-(amino(4-((methylamino)methyl)phenyl) (oxo)-λ^6-sulfaneylidene)-2-(5-fluoro-3-isopropyl-[1,1′-biphenyl]-2-yl)acetamide]
[1]; [3]
  IC50: 200 to 1000 nM

## CCc1c2c(cc(C(C)C)c1CC(=O)N=S(N)(=O)c1sc(C(C)(C)O)cc1F)COC2 (single isomer, unassigned) [Example 299, (S) or (R)-N-(amino (3-fluoro-5-(2-hydroxypropan-2-yl)thiophen-2-yl)(oxo)-λ^6-sulfaneylidene)-2-(4-ethyl-6-isopropyl-1,3-dihydroisobenzofuran-5-yl)acetamide]
[2]; [7]
  IC50: 5000 to 30000 nM

## CC(C)c1cc(F)cc(C(C)C)c1CC(=O)N=S(N)(=O)c1sc(C(C)(C)O)cc1F (single isomer, unassigned) [Example 50, (S)- or (R)-2-(4-fluoro-2,6-diisopropylphenyl)-N-(3-fluoro-5-(2-hydroxypropan-2-yl)thiophen-2-ylsulfonimidoyl)acetamide]
[2]; [7]
  IC50: 8 to 40 nM

## CC(C)c1cc2c(c(C(C)C)c1CC(=O)N=S(N)(=O)c1cnc(C(C)(C)O)s1)COC2=O (single isomer, unassigned) [Example 318, (S) or (R)-N-(amino(2-(2-hydroxypropan-2-yl)thiazol-5-yl)(oxo)-λ^6-sulfaneylidene)-2-(4,6-diisopropyl-1-oxo-1,3-dihydroisobenzofuran-5-yl)acetamide]
[2]; [8]
  IC50: > 30000 nM

## CC(C)c1cc(F)c(F)c(C(C)C)c1CC(=O)N=S(N)(=O)c1nc(C(C)(C)O)cs1 (single isomer, unassigned) [Example 177, (R) or (S)-N-(amino(4-(2-hydroxypropan-2-yl)thiazol-2-yl)(oxo)-λ^6-sulfaneylidene)-2-(3,4-difluoro-2,6-diisopropylphenyl) acetamide]
[2]; [7]
  IC50: 40 to 200 nM

## COCc1cc(C(C)C)c(CC(=O)N=S(N)(=O)c2ncc(C(C)(C)O)s2)c(C(C)C)n1 (single isomer, unassigned) [Example 274, (R) or (S)-N-(amino (5-(2-hydroxypropan-2-yl)thiazol-2-yl)(oxo)-λ^6-sulfaneylidene)-2-(2,4-diisopropyl-6-(methoxymethyl)pyridin-3-yl)acetamide]
[2]; [9]
  IC50: 1000 to 5000 nM

## CC(C)c1cc(Cl)c(F)c(C2CC2)c1CC(=O)N=S(N)(=O)c1sc(C(C)(C)O)cc1F (single isomer, unassigned) [Example 57, (R)- or (S)-2-(4-chloro-2-cyclopropyl-3-fluoro-6-isopropylphenyl)-N-(3-fluoro-5-(2-hydroxypropan-2-yl)thiophen-2-ylsulfonimidoyl)acetamide]
[2]; [7]
  IC50: 1000 to 5000 nM

## CNCc1ccc(S(N)(=O)=NC(=O)Cc2c(C(C)C)cc(C(F)F)nc2C(C)C)cc1 (single isomer, unassigned) [Example 324, (R) or (S)-N-(amino (4-((methylamino)methyl)phenyl)(oxo)-λ^6-sulfaneylidene)-2-(6-(difluoromethyl)-2,4-diisopropylpyridin-3-yl)acetamide]
[2]; [9]
  IC50: 5000 to 30000 nM

## CC(C)c1c2c(c3c(c1CC(=O)N=S(N)(=O)c1sc(C(C)(C)O)cc1F)CCC3)COC2 (single isomer, unassigned) [Example 411, (R) or (S)-N-(amino(3-fluoro-5-(2-hydroxypropan-2-yl)thiophen-2-yl)(oxo)-λ^6-sulfaneylidene)-2-(4-isopropyl-3,6,7,8-tetrahydro-1H-indeno[4,5-c]furan-5-yl)acetamide]
[2]; [5]
  IC50: 200 to 1000 nM
[1]; [6]
  IC50: 200 to 1000 nM

## CC(C)c1cc(F)cc(C2CC2)c1CC(=O)N=S(N)(=O)c1sc(C(C)(C)O)cc1F (single isomer, unassigned) [Example 53, (R)- or (S)-2-(2-cyclopropyl-4-fluoro-6-isopropylphenyl)-N-(3-fluoro-5-(2-hydroxypropan-2-yl)thiophen-2-ylsulfonimidoyl)acetamide]
[2]; [7]
  IC50: 1000 to 5000 nM

## CC(C)c1cc(CCC2CCCCC2)cc(C(C)C)c1CC(=O)N=S(N)(=O)c1cc(C(C)(C)O)n(-c2ccccc2)n1 (single isomer, unassigned) [Example 282, (S) or (R)-N-(amino(5-(2-hydroxypropan-2-yl)-1-phenyl-1H-pyrazol-3-yl)(oxo)-λ^6-sulfaneylidene)-2-(4-(2-cyclohexylethyl)-2,6-diisopropylphenyl) acetamide]
[2]; [8]
  IC50: > 30000 nM
